In general, IC50 refers to the concentration that gives 50% inhibition. The term inhibition denotes how much of the control response was suppressed.

The experiment has as its target T1, recombinant human KHKC (Homo sapiens, UniProt P50053).
T1 construct: Profinity eXact fusion tag (N, cleaved yes); made in house; host or cells: E. coli BL21 (DE3), vector pPAL8; cDNA from Hep G2 cells
T1 sequence (P50053 1-298): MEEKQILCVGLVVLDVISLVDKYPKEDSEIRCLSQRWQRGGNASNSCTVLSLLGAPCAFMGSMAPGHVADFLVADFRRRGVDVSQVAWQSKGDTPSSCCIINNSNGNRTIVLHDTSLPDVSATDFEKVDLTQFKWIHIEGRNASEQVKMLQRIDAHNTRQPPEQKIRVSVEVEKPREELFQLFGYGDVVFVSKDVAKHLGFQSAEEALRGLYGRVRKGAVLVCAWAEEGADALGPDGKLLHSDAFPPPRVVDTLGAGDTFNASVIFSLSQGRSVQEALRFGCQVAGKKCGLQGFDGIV
Kind of experiment: High throughput cell-free recombinant KHKC enzymatic assay (3-step reaction, decrease in NADH at A340nm). The experiment is classed as biochemical. As to conditions: for inhibition at 50 µM: read-out: KHKC Inhibition (%). The method, then: Botanical extracts and phytochemicals were screened for their inhibitory activity using a high throughput cell-free enzymatic assay that utilized recombinant KHKC. KHKC activity was assayed with a 3-step reaction (Fig 2). The Synergy 2 multi-mode microplate reader was used to measure the decrease in NADH at A340nm (BioTek Instruments, Inc., Winooski, VT). For screening of the botanical extracts and phytochemicals, the KHKC enzymatic assay was carried out at 37°C in a total reaction volume of 200 ul containing 50 mM PIPES, 6 mM MgCl2, 100 mM KCl, 5 mM ATP, 2 mM phosphoenolpyruvate, 0.3 mM NADH, 15 U of pyruvate kinase, 15 U of lactate dehydrogenase, and 75 ng KHKC. The botanical extracts (50 μg/mL) and phytochemicals (50 μM) were preincubated in the reaction mixture for 15 min at 37°C. Afterwards, 1 mM fructose was added to the reactions, except for the no fructose controls, and A340nm data were collected every minute for 1 hr. The changes in absorbance were calculated for all samples based on the linear phase of the reactions and adjusted for the no fructose controls. Compared to the fructose only controls (1 mM fructose, no inhibitors), percentage inhibition of KHKC for each sample was calculated. […] For phytochemicals that inhibited KHKC by at least 40%, dose responses were conducted from 0.05 to 100 μM. IC50s against KHKC were calculated. 4-(hydroxymercuri) benzoic acid sodium salt was used as a positive inhibitory control of KHKC [36]. All chemicals were purchased from Sigma-Aldrich (St. Louis, MO).
Recombinant human KHKC proteins: Recombinant human KHKC was produced using the Profinity eXact fusion-tag system (Bio-Rad Laboratories, Hercules, CA). RNA were isolated from Hep G2 cells. CDNA was generated using 1 μg of RNA (iScript cDNA synthesis kit, Bio-Rad Laboratories). The coding sequences of KHKC were amplified using iProof high-fidelity DNA polymerase (Bio-Rad Laboratories). The following primers were used: forward primer = 5’…[…]…3’ and reverse primer = 5’…[…]…3’. The amplicons were ligated into pPAL8, a bacterial expression vector. Sequencing, performed by Beckman Coulter Genomics (Danvers, MA), confirmed that the coding sequences of the KHKC clones were a match to the National Center for Biotechnology Information’s reference sequence. The clones were transformed into BL21 (DE3) chemi-competent expression cells (Bio-Rad Laboratories). E. coli cultures were grown at 37°C in terrific broth media containing 100 μg/mL ampicillin. When the cell density (OD600) reached 0.5–0.7, the expression of KHKC was induced by adding 1 mM isopropyl β-D-1-thiogalactopyranoside. After 3–4 hr incubation, the growth culture was centrifuged at 5,000 g for 10 min at 4°C and the pellet was stored at -80°C.
For protein purification, the bacterial cell pellet was lysed using B-PER in phosphate buffer (Thermo Fisher Scientific Inc., Rockford, IL) containing AEBSF protease inhibitor (EMD Chemicals, Gibbstown, NJ). The lysate was centrifuged at 30,000 x g for 30 min at 4°C to remove cell debris. The supernatant was filtered using a […] syringe filter and then loaded (2.5 mL/min) onto the Bio-Scale Mini Profinity eXact cartridges using the Profinia protein purification instrument (Bio-Rad Laboratories). The column was first washed with 100 mL sodium phosphate, pH 7.0 (10 ml/min, CV = 10) followed by 400 mL sodium phosphate, pH 7.0 (10 ml/min, CV = 15). The protein was eluted with 100 mM sodium phosphate and 100 mM sodium fluoride, pH 7.2 and incubated for 4 hr at 4°C. The tag-less protein was stored in 20% glycerol and frozen at -80°C until use.
GraphPad Prism 5.03 (GraphPad Software, La Jolla, CA) was utilized for the data and statistical analyses. To generate a best fit, an upper concentration (10,000 μg/mL at 100% inhibition) and a lower concentration (0.001 μg/mL at 0% inhibition) were added in order to calculate the IC50s for the inhibition of KHKC and for the inhibition of fructose-induced ATP depletion. […]

Setting [1] is: phytochemical library screen, 50 μM, 1 mM fructose.
Where [2] appears, read: phytochemicals, dose response 0.05 to 100 μM, read-out: KHKC IC50.

Where two headings read alike, the source gives them in different places.

Consider “3,4',5,7-THMethoxy3'-O-B-D-Xylopyranoside”, for which, under setting [1], the “KHKC Inhibition (%)” value was 63.3%. Under setting [2], the IC50 was 3.5 µM.

As for `COc1cc(OC)c2ccc(=O)oc2c1CC=C(C)C` [5,7-Dimethoxy-8-prenylcoumarin], under setting [1], the inhibition at 50 µM was determined as 70.4%. Under setting [2], the IC50 worked out at 10.3 µM.

As for `O=C(O)[C@H]1O[C@@H](Oc2cc(O)c3c(=O)cc(-c4ccc(O)cc4)oc3c2)[C@H](O)[C@@H](O)[C@@H]1O` [Apigenin 7-glucuronide], under setting [1], the “KHKC Inhibition (%)” value is on record as 53.1%. Moreover, under setting [2], the IC50 stood at 16.1 µM.

Take `O=c1cc(-c2ccc(O)cc2)oc2cc(O[C@@H]3O[C@H](CO)[C@@H](O)[C@H](O)[C@H]3O[C@@H]3OC[C@](O)(CO)[C@H]3O)cc(O)c12` [Apiin]: the inhibition at 50 µM under setting [1] worked out at 47%. Besides, the IC50 under setting [2] is 21.5 µM.

Turning to `COc1c(O)cc2c(=O)c3c(O)cc(O)c(CC=C(C)C)c3oc2c1CC=C(C)C` [Cratoxyarborenone E], the inhibition at 50 µM under setting [1] came to 61.7%. Also, the IC50 under setting [2] is 1 µM.

Turning to `CC(C)=CCc1c(O)ccc(C(=O)/C=C/c2ccc(O)cc2)c1O` [Isobavachalcone], the inhibition at 50 µM under setting [1] came out at 44.2%. Also, under setting [2], the IC50 is 5.7 µM.

On to `CC(C)=CCc1c(-c2ccc(O)cc2O)oc2c(CC=C(C)C)c(O)cc(O)c2c1=O` [Mulberrin], for which the “KHKC Inhibition (%)” value under setting [1] is recorded as 61.2%. Also, the IC50 under setting [2] is 31.2 µM.

`COc1c(O)cc2oc(-c3ccccc3)cc(=O)c2c1O` [Oroxylin A]: the inhibition at 50 µM under setting [1] was found to be 42.1%. The IC50 under setting [2] is 8.2 µM.

Turning to `CC(C)=CCc1c(O)ccc2ccc(=O)oc12` [Osthenol], the IC50 was found to be 7.8 µM and the inhibition at 50 µM was found to be 74.1%.

Consider `COc1ccc2ccc(=O)oc2c1CC=C(C)C` [Osthole], for which the inhibition at 50 µM under setting [1] amounted to 93.4%. Further, the IC50 under setting [2] amounted to 0.7 µM.

Flavaspidic acid AB: the “KHKC Inhibition (%)” value under setting [1] is 48.7%. For the same compound, the IC50 under setting [2] stood at 29.5 µM.

Methoxy isobavachalcone: the “KHKC Inhibition (%)” value under setting [1] came to 70.8%. Under setting [2], the IC50 was 0.2 µM.

For the compound Swietenocoumarin B, the “KHKC Inhibition (%)” value under setting [1] came out at 62.5%. Besides, the IC50 under setting [2] was found to be 58.4 µM.

Turning to α-/γ-Mangostin, the “KHKC Inhibition (%)” value under setting [1] is reported as 90.4%. Further, the IC50 under setting [2] worked out at 1.5 µM.

The record behind these values is PMC4913896, “Bioactivity-Guided Identification of Botanical Inhibitors of Ketohexokinase” (PLoS ONE, 2016).
